According to patent US7410975B2, “Small molecule toll-like receptor (TLR) antagonists” (Coley Pharmaceutical Group, Inc., priority 2003, dated 2008):

Molecular target: T1, human TLR8 (hTLR8) (Homo sapiens, UniProt Q9NR97)
T1 construct: expressed in transfected cells
T1 sequence (Q9NR97 27-1041): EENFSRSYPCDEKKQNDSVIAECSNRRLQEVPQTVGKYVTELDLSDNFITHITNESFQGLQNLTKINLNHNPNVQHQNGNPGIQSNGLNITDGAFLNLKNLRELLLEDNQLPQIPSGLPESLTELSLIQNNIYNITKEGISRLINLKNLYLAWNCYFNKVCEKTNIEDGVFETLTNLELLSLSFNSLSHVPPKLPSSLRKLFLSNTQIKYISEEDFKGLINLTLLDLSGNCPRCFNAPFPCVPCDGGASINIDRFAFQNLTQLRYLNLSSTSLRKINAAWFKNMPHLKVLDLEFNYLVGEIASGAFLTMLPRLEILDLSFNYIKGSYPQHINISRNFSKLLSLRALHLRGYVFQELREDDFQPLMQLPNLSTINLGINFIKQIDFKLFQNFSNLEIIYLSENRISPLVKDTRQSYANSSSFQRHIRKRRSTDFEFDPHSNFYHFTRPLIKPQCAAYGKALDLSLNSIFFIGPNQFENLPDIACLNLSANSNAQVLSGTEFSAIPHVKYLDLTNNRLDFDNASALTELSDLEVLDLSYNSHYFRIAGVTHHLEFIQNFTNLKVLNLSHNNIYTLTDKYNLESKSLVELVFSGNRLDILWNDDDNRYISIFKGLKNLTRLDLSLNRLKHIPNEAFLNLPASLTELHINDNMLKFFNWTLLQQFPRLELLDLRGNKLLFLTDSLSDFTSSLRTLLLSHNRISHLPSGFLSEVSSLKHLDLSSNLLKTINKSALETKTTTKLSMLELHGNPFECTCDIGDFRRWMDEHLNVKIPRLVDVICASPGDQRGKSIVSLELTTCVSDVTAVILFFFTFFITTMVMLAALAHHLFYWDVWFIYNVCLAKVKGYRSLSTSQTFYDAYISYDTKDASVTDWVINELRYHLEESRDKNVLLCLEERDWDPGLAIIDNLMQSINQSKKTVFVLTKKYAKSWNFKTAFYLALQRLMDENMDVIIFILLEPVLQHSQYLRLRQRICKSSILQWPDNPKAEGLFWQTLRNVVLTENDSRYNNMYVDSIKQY
Test: Antagonist screen, hTLR8-NFκB-293 cells, NF-κB-luciferase reporter, with EC50 of R848
Format: cell-based
Conditions: compound at 0.5, 5, 50 μg/ml; EC50 concentration of R848; 16 h; NF-κB-luciferase
Method: The method is described in greater detail as follows. The cells for each individual cell clone (hTLR3-NFκB-293, hTLR7-NFκB-293, hTLR8-NFκB-293 and hTLR9-NFκB-293) were counted and seeded one day before the stimulation at 1.5×10^4 cells per well in 96-well cell culture plates. To become adherent the cells were incubated after seeding overnight at 37° C. in 5% CO2 humidified air.
The screen for each compound was performed at the same time for all of the receptors TLR3, TLR7, TLR8 and TLR9. Up to fifteen test compounds, each assayed in duplicate at each of three different final concentrations (0.5 μg/ml, 5 μg/ml, and 50 μg/ml), were used for 16 h cell stimulation on a single multiwell culture plate. A 4× final concentration master plate was created to prepare the different test compounds before they were added to the cells.
Controls were added as duplicates individually for each cell clone on the cell culture plate. Positive controls were used as follows (final concentrations): 50 μg/ml poly(I:C) for hTLR3-NFκB-293; 8 μM resiquimod (R848) for hTLR7-NFκB-293; 30 μM R848 for hTLR8-NFκB-293; and 2.5 μM CpG-ODN 2006 for hTLR9-NFκB-293. Media alone was used as negative control. After addition of controls and small molecules, the cell clones were additionally stimulated with the EC50 concentration of the appropriate receptor-specific ligand.
The mean value of wells H2 and H5 (each with cells and EC50 concentration of the appropriate receptor-specific ligand) divided by the mean of wells H3 and H6 (each with cells alone) yielded the baseline response (i.e., fold induction of luciferase activity) to EC50 concentration of the appropriate receptor-specific ligand.
After 16 h stimulation the supernatant was removed and the cells treated with lysis buffer and stored at −80° C. before measuring.
For each screen result a graphical documentation was performed.
The baseline result (measured with addition of the EC50 concentration of the receptor-specific ligand) for each cell culture plate was measured as described above. Antagonistic effects were measured by down regulation compared to the baseline. Antagonists were scored as follows: • 13: compounds for which there was clear down regulation at 0.5 μg/ml, 5 μg/ml, and 50 μg/ml; • 12: compounds for which there was clear down regulation at 5 μg/ml and 50 μg/ml; • 11: compounds for which there was clear down regulation only at 50 μg/ml; • —: compounds for which there was no clear down regulation even at 50 μg/ml. Agonists
Results were expressed as fold induction over baseline luciferase activity measured in the absence of R848. […] Additional screening was performed in like manner using additional small molecules selected from another library or specifically prepared for this purpose. Scoring is reported as above but as applied to TLR8.

Compound | hTLR8 (inhibitory effect, antagonist score)
CC1NCCc2c1[nH]c1ccccc21.Cl (racemic) [compound 619, Eleagnine hydrochloride (R,S)] | — (compounds for which there was no clear down regulation even at 50 μg/ml)
O=C1c2c(O)cccc2Cc2cccc(O)c21 [compound 43, Anthralin] | 12 (compounds for which there was clear down regulation at 5 μg/ml and 50 μg/ml)
CN(C)CCCN1c2ccccc2Sc2ccc(C(F)(F)F)cc21.Cl [compound 53, Triflupromazinehydrochloride] | 11 (compounds for which there was clear down regulation only at 50 μg/ml)
CN(C)CCCN1c2ccccc2Sc2ccc(Cl)cc21.Cl [compound 64, Chlorpromazinehydrochloride] | 11 (compounds for which there was clear down regulation only at 50 μg/ml)
CN(C)CCC=C1c2ccccc2CCc2ccccc21.Cl [compound 74, Amitryptilinehydrochloride] | — (compounds for which there was no clear down regulation even at 50 μg/ml)
OC(c1ccccc1)(c1ccccc1)C1CCNCC1 [compound 93, Azacyclonol] | — (compounds for which there was no clear down regulation even at 50 μg/ml)
CN1Cc2c(N)cccc2C(c2ccccc2)C1.O=C(O)/C=C\C(=O)O (centres unmarked) [compound 108, Nomifensine maleate] | — (compounds for which there was no clear down regulation even at 50 μg/ml)
C[C@]12N[C@H](Cc3ccccc31)c1ccccc12.O=C(O)/C=C\C(=O)O [compound 109, Dizocilpine maleate] | — (compounds for which there was no clear down regulation even at 50 μg/ml)
OCCN1CCN(CCCN2c3ccccc3Sc3ccc(Cl)cc32)CC1 [compound 125, Perphenazine] | 11 (compounds for which there was clear down regulation only at 50 μg/ml)
CN1CCN(CCCN2c3ccccc3Sc3ccc(S(=O)(=O)N(C)C)cc32)CC1.CS(=O)(=O)O.CS(=O)(=O)O [compound 149, Thioproperasinedimesylate] | — (compounds for which there was no clear down regulation even at 50 μg/ml)
Clc1ccccc1C(c1ccccc1)(c1ccccc1)n1ccnc1 [compound 267, Clotrimazole] | 12 (compounds for which there was clear down regulation at 5 μg/ml and 50 μg/ml)
CC(NCCC(c1ccccc1)c1ccccc1)c1ccccc1.Cl (centres unmarked) [compound 270, Fendiline hydrochloride] | 12 (compounds for which there was clear down regulation at 5 μg/ml and 50 μg/ml)
CN1CCC(=C2c3ccccc3Sc3ccccc32)CC1.O=C(O)/C=C\C(=O)O [compound 294, Pimethixene maleate] | 11 (compounds for which there was clear down regulation only at 50 μg/ml)
O=c1[nH]c2ccccc2n1C1CCN(CCCC(c2ccc(F)cc2)c2ccc(F)cc2)CC1 [compound 308, Pimozide] | 11 (compounds for which there was clear down regulation only at 50 μg/ml)
Cl.Cl.OCCN1CCN(CC/C=C2/c3ccccc3Sc3ccc(C(F)(F)F)cc32)CC1 [compound 340, Flupentixoldihydrochloride cis-(Z)] | 11 (compounds for which there was clear down regulation only at 50 μg/ml)
CNCCCN1c2ccccc2CCc2ccccc21.Cl [compound 343, Desipraminehydrochloride] | 11 (compounds for which there was clear down regulation only at 50 μg/ml)
CN(C)CC/C=C1/c2ccccc2Sc2ccc(Cl)cc21.Cl [compound 348, Chlorprothixenehydrochloride] | 11 (compounds for which there was clear down regulation only at 50 μg/ml)
Cc1cccc(C)c1NC(=O)CN1CCN(CCCC(c2ccc(F)cc2)c2ccc(F)cc2)CC1 [compound 381, Lidoflazine] | 11 (compounds for which there was clear down regulation only at 50 μg/ml)
Cl.Cl.Fc1ccc(C(OCCN2CCN(CCCc3ccccc3)CC2)c2ccc(F)cc2)cc1 [compound 386, GBR 12909hydrochloride] | 12 (compounds for which there was clear down regulation at 5 μg/ml and 50 μg/ml)
Nc1cccc2c1C(=O)c1cccc(N)c1C2=O [compound 413, Anthraquinone,1,5-diamino] | 11 (compounds for which there was clear down regulation only at 50 μg/ml)
CN1CCC2C(C1)c1ccccc1N2Cc1ccccc1 (centres unmarked) [compound 455, Mebhydroline 1,5 naphtalenedisulfonate] | — (compounds for which there was no clear down regulation even at 50 μg/ml)
Cc1cccc(CN2CCN(C(c3ccccc3)c3ccc(Cl)cc3)CC2)c1.Cl.Cl (centres unmarked) [compound 457, Meclozinedihydrochioride] | — (compounds for which there was no clear down regulation even at 50 μg/ml)
c1ccc2c(c1)[nH]c1cnccc12 [compound 470, norharman] | 11 (compounds for which there was clear down regulation only at 50 μg/ml)
CN(C)CC/C=C1/c2ccccc2CSc2ccccc21.Cl [compound 488, Dosulepin hydrochloride] | — (compounds for which there was no clear down regulation even at 50 μg/ml)
CN1CCN(C(c2ccccc2)c2ccccc2)CC1.Cl [compound 510, Cyclizine hydrochloride] | — (compounds for which there was no clear down regulation even at 50 μg/ml)
CN1CCCCC1CCN1c2ccccc2Sc2ccc([S+](C)[O-])cc21.O=S(=O)(O)c1ccccc1 (centres unmarked) [compound 529, Mesoridazine besylate] | — (compounds for which there was no clear down regulation even at 50 μg/ml)
CCOC(=O)Oc1c(OC)cc(C(=O)O[C@@H]2C[C@@H]3CN4CCc5c([nH]c6cc(OC)ccc56)[C@H]4C[C@@H]3[C@H](C(=O)OC)[C@H]2OC)cc1OC [compound 564, Syrosingopine] | 12 (compounds for which there was clear down regulation at 5 μg/ml and 50 μg/ml)
COC(=O)[C@H]1[C@H]2C[C@@H]3c4[nH]c5cc(OC)ccc5c4CCN3C[C@H]2C[C@@H](OC(=O)/C=C/c2cc(OC)c(OC)c(OC)c2)[C@@H]1OC [compound 568, Rescinnamin] | — (compounds for which there was no clear down regulation even at 50 μg/ml)
CC(=O)c1ccc2c(c1)N(CCCN(C)C)c1ccccc1S2.O=C(O)/C=C\C(=O)O [compound 576, Acetopromazinemaleate salt] | — (compounds for which there was no clear down regulation even at 50 μg/ml)
